{
  "source": "patent US8791107B2",
  "about": "“N-substituted oxazinopteridines and oxazinopteridinones” (Takeda Pharmaceutical Company Limited, priority 2011, dated 2014)",
  "data": [
    {"biological_target": "T1, PI3Kδ (Homo sapiens, UniProt O00329)", "T1 construct": "The protein is full length and co-expressed with untagged PIK3R1; GST; purchased Invitrogen PV5274", "T1 sequence (O00329 whole entry)": "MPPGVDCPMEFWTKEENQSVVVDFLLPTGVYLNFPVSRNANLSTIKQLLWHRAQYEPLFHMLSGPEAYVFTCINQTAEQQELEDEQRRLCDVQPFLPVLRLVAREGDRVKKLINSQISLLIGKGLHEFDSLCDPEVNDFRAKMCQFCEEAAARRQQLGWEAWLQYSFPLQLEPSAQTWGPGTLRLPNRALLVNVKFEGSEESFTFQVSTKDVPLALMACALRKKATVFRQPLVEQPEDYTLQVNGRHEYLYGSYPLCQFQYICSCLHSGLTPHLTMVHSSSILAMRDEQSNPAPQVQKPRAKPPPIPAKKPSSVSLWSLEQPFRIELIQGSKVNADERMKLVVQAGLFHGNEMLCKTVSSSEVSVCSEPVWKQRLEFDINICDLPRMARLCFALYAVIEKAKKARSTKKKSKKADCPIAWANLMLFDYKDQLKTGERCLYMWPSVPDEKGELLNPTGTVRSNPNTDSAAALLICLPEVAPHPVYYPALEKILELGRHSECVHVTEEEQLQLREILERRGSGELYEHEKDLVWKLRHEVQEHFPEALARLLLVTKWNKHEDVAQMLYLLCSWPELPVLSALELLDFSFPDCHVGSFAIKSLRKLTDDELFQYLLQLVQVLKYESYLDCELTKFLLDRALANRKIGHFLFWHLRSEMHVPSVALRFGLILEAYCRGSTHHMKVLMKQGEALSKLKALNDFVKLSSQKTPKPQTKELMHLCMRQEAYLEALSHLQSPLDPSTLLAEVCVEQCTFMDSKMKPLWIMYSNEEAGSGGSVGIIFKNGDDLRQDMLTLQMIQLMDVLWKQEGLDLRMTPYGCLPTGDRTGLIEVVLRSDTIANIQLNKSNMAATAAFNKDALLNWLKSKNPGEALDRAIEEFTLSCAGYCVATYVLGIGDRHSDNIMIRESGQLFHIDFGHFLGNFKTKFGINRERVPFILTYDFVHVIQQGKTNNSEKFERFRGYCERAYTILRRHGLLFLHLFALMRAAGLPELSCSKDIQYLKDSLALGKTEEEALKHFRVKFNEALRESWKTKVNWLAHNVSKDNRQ", "T1 sequence (P27986 whole entry partner)": "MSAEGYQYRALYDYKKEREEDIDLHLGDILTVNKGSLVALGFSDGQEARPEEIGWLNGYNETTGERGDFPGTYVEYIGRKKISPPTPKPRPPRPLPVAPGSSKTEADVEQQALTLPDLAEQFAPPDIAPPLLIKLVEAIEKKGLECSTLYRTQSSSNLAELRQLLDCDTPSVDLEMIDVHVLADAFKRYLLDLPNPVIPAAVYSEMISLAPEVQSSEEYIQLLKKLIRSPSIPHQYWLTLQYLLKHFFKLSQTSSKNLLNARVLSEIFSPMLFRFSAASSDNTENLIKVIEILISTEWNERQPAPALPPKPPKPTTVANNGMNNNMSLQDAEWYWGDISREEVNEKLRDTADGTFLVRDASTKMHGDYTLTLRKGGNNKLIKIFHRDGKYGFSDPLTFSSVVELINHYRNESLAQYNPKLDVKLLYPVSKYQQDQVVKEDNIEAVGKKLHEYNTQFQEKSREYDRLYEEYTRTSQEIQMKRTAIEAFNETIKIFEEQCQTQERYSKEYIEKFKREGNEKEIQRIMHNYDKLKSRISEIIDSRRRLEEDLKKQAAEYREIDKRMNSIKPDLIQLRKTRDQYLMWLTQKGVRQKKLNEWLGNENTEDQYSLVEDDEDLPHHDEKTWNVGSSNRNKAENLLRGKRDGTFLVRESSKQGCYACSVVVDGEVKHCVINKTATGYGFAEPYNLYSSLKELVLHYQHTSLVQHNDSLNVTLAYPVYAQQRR", "assay": "PI3Kδ inhibition, modified PIK3CD Adapta TR-FRET assay", "assay_type": "biochemical", "details": "recombinant GST-tagged full length PIK3CD co-expressed with PIK3R1 (p85α); 2 μM ATP, 50 μM PIP2; read-out: PI3Kδ Inhibition (pIC50) (converted)", "summary_of_the_method": "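Full-length GST-PIK3CD co-expressed with p85α was run in 50 mM HEPES pH 7.5, 3 mM MgCl2, 1 mM EGTA, 100 mM NaCl, 0.03% CHAPS, 2 mM DTT, 1% DMSO, with 12-point compound titrations. Reactions at room temperature were started with solution containing 2 μM ATP and 50 μM PIP2. ADP was detected by Adapta TR-FRET (620 nm-ratioed).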", "units": {"IC50": "nM"}, "values": [
      {"smiles": "CNC(=O)Nc1ccc(-c2ncc3c(n2)N2CCOCC2C(=O)N3C2(c3ccc(Cl)cc3)CC2)cc1", "note": "(stereo not shown) [Example 99, 1-(4-(5-(1-(4-chlorophenyl)cyclopropyl)-6-oxo-5,6,6a,7,9,10-hexahydro-[1,4]oxazino[3,4-h]pteridin-2-yl)phenyl)-3-methylurea]", "IC50": 6.31},
      {"smiles": "CS(=O)(=O)c1ccc(CN2C(=O)C3COCCN3c3nc(-c4ccc5cc[nH]c5c4)ncc32)cc1", "note": "(stereo not shown) [Example 100, 2-(1H-indol-6-yl)-5-(4-(methylsulfonyl)benzyl)-6a,7,9,10-tetrahydro-[1,4]oxazino[3,4-h]pteridin-6(5H)-one]", "IC50": 3980},
      {"smiles": "CC(=O)Nc1cccc(-c2ncc3c(n2)N2CCOCC2C(=O)N3Cc2ccc(S(C)(=O)=O)cc2)c1", "note": "(stereo not shown) [Example 101, N-(3-(5-(4-(methylsulfonyl)benzyl)-6-oxo-5,6,6a,7,9,10-hexahydro-[1,4]oxazino[3,4-h]pteridin-2-yl)phenyl)acetamide]", "IC50": 316},
      {"smiles": "CS(=O)(=O)Nc1ccc(-c2ncc3c(n2)N2CCOCC2C(=O)N3Cc2ccc(S(C)(=O)=O)cc2)cc1", "note": "(stereo not shown) [Example 102, N-(4-(5-(4-(methylsulfonyl)benzyl)-6-oxo-5,6,6a,7,9,10-hexahydro-[1,4]oxazino[3,4-h]pteridin-2-yl)phenyl)methanesulfonamide]", "IC50": 200},
      {"smiles": "CS(=O)(=O)c1ccc(CN2C(=O)C3COCCN3c3nc(-c4cccc(N)c4)ncc32)cc1", "note": "(stereo not shown) [Example 103, 2-(3-aminophenyl)-5-(4-(methylsulfonyl)benzyl)-6a,7,9,10-tetrahydro-[1,4]oxazino[3,4-h]pteridin-6(5H)-one]", "IC50": 126},
      {"smiles": "CC(=O)Nc1ccccc1-c1ncc2c(n1)N1CCOCC1C(=O)N2Cc1ccc(S(C)(=O)=O)cc1", "note": "(stereo not shown) [Example 104, N-(2-(5-(4-(methylsulfonyl)benzyl)-6-oxo-5,6,6a,7,9,10-hexahydro-[1,4]oxazino[3,4-h]pteridin-2-yl)phenyl)acetamide]", "IC50": 200},
      {"smiles": "CCOC(=O)c1cncc(-c2ncc3c(n2)N2CCOCC2C(=O)N3Cc2ccc(S(C)(=O)=O)cc2)c1", "note": "(stereo not shown) [Example 105, ethyl 5-(5-(4-(methylsulfonyl)benzyl)-6-oxo-5,6,6a,7,9,10-hexahydro-[1,4]oxazino[3,4-h]pteridin-2-yl)nicotinate]", "IC50": 7940},
      {"smiles": "CS(=O)(=O)c1ccc(CN2C(=O)C3COCCN3c3nc(-c4ccc(N)nc4)ncc32)cc1", "note": "(stereo not shown) [Example 106, 2-(6-aminopyridin-3-yl)-5-(4-(methylsulfonyl)benzyl)-6a,7,9,10-tetrahydro-[1,4]oxazino[3,4-h]pteridin-6(5H)-one]", "IC50": 7.94},
      {"smiles": "CS(=O)(=O)c1ccc(CN2C(=O)C3COCCN3c3nc(-c4ccc(C(N)=O)cc4)ncc32)cc1", "note": "(stereo not shown) [Example 107, 4-(5-(4-(methylsulfonyl)benzyl)-6-oxo-5,6,6a,7,9,10-hexahydro-[1,4]oxazino[3,4-h]pteridin-2-yl)benzamide]", "IC50": 398},
      {"smiles": "CS(=O)(=O)c1ccc(CN2C(=O)C3COCCN3c3nc(-c4cnc5[nH]ccc5c4)ncc32)cc1", "note": "(stereo not shown) [Example 108, 5-(4-(methylsulfonyl)benzyl)-2-(1H-pyrrolo[2,3-b]pyridin-5-yl)-6a,7,9,10-tetrahydro-[1,4]oxazino[3,4-h]pteridin-6(5H)-one]", "IC50": 31.6},
      {"smiles": "CNC(=O)c1ccc(-c2ncc3c(n2)N2CCOCC2C(=O)N3Cc2ccc(S(C)(=O)=O)cc2)cn1", "note": "(stereo not shown) [Example 109, N-methyl-5-(5-(4-(methylsulfonyl)benzyl)-6-oxo-5,6,6a,7,9,10-hexahydro-[1,4]oxazino[3,4-h]pteridin-2-yl)picolinamide]", "IC50": 7940},
      {"smiles": "CS(=O)(=O)c1ccc(CN2C(=O)C3COCCN3c3nc(-c4cccc(-c5cc[nH]n5)c4)ncc32)cc1", "note": "(stereo not shown) [Example 110, 2-(3-(1H-pyrazol-3-yl)phenyl)-5-(4-(methylsulfonyl)benzyl)-6a,7,9,10-tetrahydro-[1,4]oxazino[3,4-h]pteridin-6(5H)-one]", "IC50": 3160},
      {"smiles": "CNS(=O)(=O)c1cccc(-c2ncc3c(n2)N2CCOCC2C(=O)N3Cc2ccc(S(C)(=O)=O)cc2)c1", "note": "(stereo not shown) [Example 111, N-methyl-3-(5-(4-(methylsulfonyl)benzyl)-6-oxo-5,6,6a,7,9,10-hexahydro-[1,4]oxazino[3,4-h]pteridin-2-yl)benzenesulfonamide]", "IC50": 1580},
      {"smiles": "CC(=O)Nc1ccc(-c2ncc3c(n2)N2CCOCC2C(=O)N3Cc2ccc(S(C)(=O)=O)cc2)cc1", "note": "(stereo not shown) [Example 112, N-(4-(5-(4-(methylsulfonyl)benzyl)-6-oxo-5,6,6a,7,9,10-hexahydro-[1,4]oxazino[3,4-h]pteridin-2-yl)phenyl)acetamide]", "IC50": 31.6},
      {"smiles": "CS(=O)(=O)c1ccc(CN2C(=O)C3COCCN3c3nc(-c4cccc(C(N)=O)c4)ncc32)cc1", "note": "(stereo not shown) [Example 113, 3-(5-(4-(methylsulfonyl)benzyl)-6-oxo-5,6,6a,7,9,10-hexahydro-[1,4]oxazino[3,4-h]pteridin-2-yl)benzamide]", "IC50": 501},
      {"smiles": "CS(=O)(=O)c1ccc(CN2C(=O)C3COCCN3c3nc(-c4ccc5[nH]ncc5c4)ncc32)cc1", "note": "(stereo not shown) [Example 114, 2-(1H-indazol-5-yl)-5-(4-(methylsulfonyl)benzyl)-6a,7,9,10-tetrahydro-[1,4]oxazino[3,4-h]pteridin-6(5H)-one]", "IC50": 200},
      {"smiles": "CS(=O)(=O)c1ccc(CN2C(=O)C3COCCN3c3nc(-c4cccc(S(N)(=O)=O)c4)ncc32)cc1", "note": "(stereo not shown) [Example 115, 3-(5-(4-(methylsulfonyl)benzyl)-6-oxo-5,6,6a,7,9,10-hexahydro-[1,4]oxazino[3,4-h]pteridin-2-yl)benzenesulfonamide]", "IC50": 631},
      {"smiles": "CS(=O)(=O)c1ccc(CN2C(=O)C3COCCN3c3nc(-c4cccc(S(=O)(=O)NC5CC5)c4)ncc32)cc1", "note": "(stereo not shown) [Example 116, N-cyclopropyl-3-(5-(4-(methylsulfonyl)benzyl)-6-oxo-5,6,6a,7,9,10-hexahydro-[1,4]oxazino[3,4-h]pteridin-2-yl)benzenesulfonamide]", "IC50": 1580},
      {"smiles": "CS(=O)(=O)Nc1cccc(-c2ncc3c(n2)N2CCOCC2C(=O)N3Cc2ccc(S(C)(=O)=O)cc2)c1", "note": "(stereo not shown) [Example 117, N-(3-(5-(4-(methylsulfonyl)benzyl)-6-oxo-5,6,6a,7,9,10-hexahydro-[1,4]oxazino[3,4-h]pteridin-2-yl)phenyl)methanesulfonamide]", "IC50": 794},
      {"smiles": "CS(=O)(=O)c1ccc(CN2C(=O)C3COCCN3c3nc(-c4ccc5[nH]c(=O)[nH]c5c4)ncc32)cc1", "note": "(stereo not shown) [Example 119, 5-(4-(methylsulfonyl)benzyl)-2-(2-oxo-2,3-dihydro-1H-benzo[d]imidazol-5-yl)-6a,7,9,10-tetrahydro-[1,4]oxazino[3,4-h]pteridin-6(5H)-one]", "IC50": 2510},
      {"smiles": "CS(=O)(=O)c1ccc(CN2C(=O)C3COCCN3c3nc(-c4cccc(NS(=O)(=O)C5CC5)c4)ncc32)cc1", "note": "(stereo not shown) [Example 120, N-(3-(5-(4-(methylsulfonyl)benzyl)-6-oxo-5,6,6a,7,9,10-hexahydro-[1,4]oxazino[3,4-h]pteridin-2-yl)phenyl)cyclopropanesulfonamide]", "IC50": 7940},
      {"smiles": "CS(=O)(=O)c1ccc(CN2C(=O)C3COCCN3c3nc(-c4cnc5cc[nH]c5c4)ncc32)cc1", "note": "(stereo not shown) [Example 121, 5-(4-(methylsulfonyl)benzyl)-2-(1H-pyrrolo[3,2-b]pyridin-6-yl)-6a,7,9,10-tetrahydro-[1,4]oxazino[3,4-h]pteridin-6(5H)-one]", "IC50": 31.6},
      {"smiles": "CNC(=O)c1cccc(-c2ncc3c(n2)N2CCOCC2C(=O)N3Cc2ccc(S(C)(=O)=O)cc2)c1", "note": "(stereo not shown) [Example 122, N-methyl-3-(5-(4-(methylsulfonyl)benzyl)-6-oxo-5,6,6a,7,9,10-hexahydro-[1,4]oxazino[3,4-h]pteridin-2-yl)benzamide]", "IC50": 1000},
      {"smiles": "CS(=O)(=O)c1ccc(CN2C(=O)C3COCCN3c3nc(-c4cccc5[nH]ccc45)ncc32)cc1", "note": "(stereo not shown) [Example 123, 2-(1H-indol-4-yl)-5-(4-(methylsulfonyl)benzyl)-6a,7,9,10-tetrahydro-[1,4]oxazino[3,4-h]pteridin-6(5H)-one]", "IC50": 0.794},
      {"smiles": "CS(=O)(=O)c1ccc(CN2C(=O)C3COCCN3c3nc(-c4ccc5cn[nH]c5c4)ncc32)cc1", "note": "(stereo not shown) [Example 124, 2-(1H-indazol-6-yl)-5-(4-(methylsulfonyl)benzyl)-6a,7,9,10-tetrahydro-[1,4]oxazino[3,4-h]pteridin-6(5H)-one]", "IC50": 3980},
      {"smiles": "CS(=O)(=O)c1ccc(CN2C(=O)C3COCCN3c3nc(-c4cnc(N)nc4)ncc32)cc1", "note": "(stereo not shown) [Example 125, 2-(2-aminopyrimidin-5-yl)-5-(4-(methylsulfonyl)benzyl)-6a,7,9,10-tetrahydro-[1,4]oxazino[3,4-h]pteridin-6(5H)-one]", "IC50": 10},
      {"smiles": "CS(=O)(=O)c1ccc(CN2C(=O)C3COCCN3c3nc(-c4ccc5[nH]ccc5c4)ncc32)cc1", "note": "(stereo not shown) [Example 127, 2-(1H-indol-5-yl)-5-(4-(methylsulfonyl)benzyl)-6a,7,9,10-tetrahydro-[1,4]oxazino[3,4-h]pteridin-6(5H)-one]", "IC50": 126},
      {"smiles": "CS(=O)(=O)c1ccc(CN2C(=O)C3COCCN3c3nc(-c4cccc(-n5cccn5)c4)ncc32)cc1", "note": "(stereo not shown) [Example 128, 2-(3-(1H-pyrazol-1-yl)phenyl)-5-(4-(methylsulfonyl)benzyl)-6a,7,9,10-tetrahydro-[1,4]oxazino[3,4-h]pteridin-6(5H)-one]", "IC50": 501},
      {"smiles": "Cc1n[nH]cc1-c1ncc2c(n1)N1CCOCC1C(=O)N2Cc1ccc(S(C)(=O)=O)cc1", "note": "(stereo not shown) [Example 130]", "IC50": 126},
      {"smiles": "CS(=O)(=O)c1ccc(CN2C(=O)C3COCCN3c3nc(-c4ccc(N)c(N)c4)ncc32)cc1", "note": "(stereo not shown) [Example 131, 2-(3,4-diaminophenyl)-5-(4-(methylsulfonyl)benzyl)-6a,7,9,10-tetrahydro-[1,4]oxazino[3,4-h]pteridin-6(5H)-one]", "IC50": 126},
      {"smiles": "CS(=O)(=O)c1ccc(CN2C(=O)C3COCCN3c3nc(-c4cccc(N5CCCS5(=O)=O)c4)ncc32)cc1", "note": "(stereo not shown) [Example 132, 2-(3-(1,1-dioxidoisothiazolidin-2-yl)phenyl)-5-(4-(methylsulfonyl)benzyl)-6a,7,9,10-tetrahydro-[1,4]oxazino[3,4-h]pteridin-6(5H)-one]", "IC50": 6310}
    ]}
  ]
}
